Article PMC6214108, “Synthesis and In Vitro Antitumor Activity of Novel Bivalent β-Carboline-3-carboxylic Acid Derivatives with DNA as a Potential Target” (International Journal of Molecular Sciences, 2018)

How the values were obtained:
[1] = test system: calf thymus DNA (CT DNA); assay: UV-visible spectral study with CT DNA; type: binding; details: 10 μM compound, 200 nM CT DNA additions
Procedure: UV-visible spectroscopy was carried out to determine the binding mode of β-carboline derivatives to DNA (CT DNA) using UV-2500 spectrophotometer (Shimadzu, Kyoto, Japan) at 25 °C. Stock solutions of 10 mM β-carboline derivatives were dissolved in DMSO, and 10 μM CT DNA was prepared in 100 mM KBPES buffer (30 mM Potassium Phosphate with 100 mM KCl, pH 7.0). UV-visible absorption titrations were performed by adding 200 nM CT DNA solution to the quartz cuvette containing approximately 10 μM derivative solutions. UV-Visible absorption spectra were recorded from 200 nm to 350 nm.
Figure 5 UV-visible spectroscopy study of β-carbolines with calf thymus (CT) DNA. UV-visible absorption titrations were done by adding 200 nM CT DNA solution each time to the quartz cuvette containing 10 μM 4B, 6i, 4D, and 6u. The absorption spectra were recorded from 200 nm to 350 nm.

[2] = test system: cytochrome C (Cyt C) in mitochondria; assay: Western blot of cytochrome C in mitochondria; type: cell-based; details: A549, 2, 4, and 8 μM, 48 h
Procedure: (§1) The level of cytochrome C (Cyt C) in mitochondria, and the expression of bcl-2 protein, were evaluated by western blot. A549 cells (1 × 10^6 cells per well) seeded into 6-well plates (JET, Guangzhou, China) were incubated with DMEM containing various concentrations (2, 4, and 8 μM) of β-carbolines (6i and 6u) for 48 h at 37 °C and 5% CO2. Then, the cells were lysed with RIPA lysis buffer for 30 min on ice (containing 1% PMSF), centrifuged at 12,000× g for 5 min at 4 °C, and then the supernatants were transferred to 1.5 mL EP tubes. Proteins were separated by sodium dodecyl sulfate-polyacrylamide gel electrophoresis (SDS-PAGE) and blotted on polyvinylidene difluoride (PVDF) membranes (Millipore, Burlington, MA, USA), as previously described. The membranes were blocked for 2 h at r.t. with 5% non-fat milk in TBST buffer (20 mM Tris-HCl,150 mM NaCl and 0.05% Tween-20, pH7.4), and then incubated with the mouse anti-bcl-2 monoclonal antibody (Sigma, Saint Louis, MO, USA), anti-cytochrome C monoclonal antibody (Beyotime, Haimen, China), and anti-β-actin antibody (1:4000 dilution; Abcam, Cambridge, MA, USA) overnight at 4 °C, and finally incubated with the peroxidase conjugated goat anti-mouse IgG (Jackson ImmunoResearch Laboratories, West Grove, PA, USA) at 37 °C for 1 h. […]

[3] = test system: bcl-2 protein; assay: Western blot of bcl-2 protein; type: cell-based; details: A549, 2, 4, and 8 μM, 48 h
Procedure: as §1

Row | Structure (SMILES) | Intercalation ability (UV-visible spectra with CT DNA) [1] | Level of Cyt C (in mitochondria), western blot [2] | Expression of bcl-2 protein, western blot [3]
1 | COC(=O)c1cc2c3ccccc3n(Cc3ccccc3F)c2cn1 [Compound 4D] | very weak | – | –
2 | O=C(OCCCCCOC(=O)c1cc2c3ccccc3n(Cc3ccccc3F)c2cn1)c1cc2c3ccccc3n(Cc3ccccc3F)c2cn1 [Compound 6u] | – | decreased in a dose-dependent manner | decreased in a dose-dependent manner
3 | Cc1ccccc1Cn1c2ccccc2c2cc(C(=O)OCCCCCOC(=O)c3cc4c5ccccc5n(Cc5ccccc5C)c4cn3)ncc21 [Compound 6i] | – | decreased in a dose-dependent manner | decreased in a dose-dependent manner
